Assay results as given in article PMC12194305, “Assessing Bioconcentration and Biotransformation of BDE-47 In Vitro: The Relevance of Bioavailable and Intracellular Concentrations” (Journal of Xenobiotics, 2025).
Several values for one entry are separate records, joined by “and”; a condition that tells them apart may be missing. Equal entries are not always repeated. Where two headings read alike, the source gives them in different places.

How the values were obtained:
[1] = set-up: method as in PMID 37289209; conditions: initial exposure 20 mg·L^−1, HepG2 cell assay at 37 °C; cited from earlier work
[2] = system: Mytilus galloprovincialis (mussel); conditions: cited from earlier work
[3] = Abiotic (volatilization) losses, contaminated medium without cells; format: physicochemical
Experimental: A total of 2 × 10^6 ZFL cells were plated in P100 glass dishes and incubated for 24 h under standard culture conditions. Subsequently, the culture medium was replaced with a contaminated medium, which, according to the cell viability assay, maintained viability above 70% by the end of the exposure period (Section 2.3). Cells were exposed to 1.8 and 2.6 mg⋅L^−1 for 24, 48 and 72 h, in two independent experiments. Parallel experiments were conducted under identical conditions to assess losses: one set included cells without contaminated medium, and another consisted of contaminated medium without cells (“no cells”). The obtained pellets were collected from all exposure time, dried under a gentle stream of nitrogen and weighed on a precision analytical balance (±0.00001 g). Finally, the dried cell pellets and their corresponding medium collected at all exposure times, including the starting medium (“t = 0 h”), were stored at −20 °C until analysis.
(§1) One of the objectives was to assess whether cell lines can be used within the BCF-IVIVE model, relying on intrinsic clearance in vitro, to estimate the biotransformation rate which is subsequently extrapolated to adult fish. This approach is based on the model developed by Nichols et al. and is endorsed by the OECD guideline 319A [10] and OECD 2018a. Briefly, the log10-transformed substrate experimental concentrations in the medium (Cmed) were plotted against time, and the first-order elimination rate constant (ke, h^−1) was determined as −2.3 × slope of the log-linear decline. Black et al. indicate that a correction to the elimination rate constant (ke) should be applied when the following conditions are met: (i) abiotic losses from volatilization, calculated by comparing the recovery of negative control samples (“no cells”) at each exposure time to the initial time, fall outside the acceptable range of 80–120%, (ii) the loss process follows first order kinetics, and (iii) the ratio of ke and the volatilization rate constant (kvolat) is below 10 (ke/kvolat < 10). Then, the constant corrected for losses due to volatilization (ke,loss) was determined as −2.3 × the difference of the slopes of the sample and the loss control of the log-linear descent. The in vitro constant was then extrapolated to obtain an in vivo metabolization constant (kMET). This was done using experimental cell concentration (CHEP, 10^6 cells/mL) and default parameters derived from rainbow trout. In this study, in addition to estimating BCF with the official model parameters derived from rainbow trout (BCFIVIVE,RT), BCF was also estimated with the literature-derived parameters for zebrafish (BCFIVIVE,ZF), due to the use of ZFL cells. Finally, the BCF was estimated by the ratio of concentration in the organism to concentration in the medium, following the standardized model. The concentration in the organism was predicted using the one-compartment model given by Arnot and Gobas, which includes the rate constants describing chemical uptake (k1), loss through the gills (k2), fecal egestion (kE), growth rate (kG) and metabolization rate (kMET). Except for kMET, which is estimated experimentally in vitro, the rest are only dependent on the log KOW of the compound. On the other hand, due to the use of cell lines, the free concentration estimated was introduced instead of the total concentration in the medium (CW,TOT).

zebrafish = test: IVIVE-BCF model with zebrafish default parameters; format: in vitro ADME; conditions: for BCFIVIVE, ZF: ZFL cells, zebrafish parameters
Text: as §1

[4] = Experimental determination of free bioavailable concentration (Cfree,exp) in exposure medium by SPME; format: in vitro ADME; conditions: for Cfree, exp: 28 °C, 72 h
Experimental: In parallel with the exposure experiment for the evaluation of bioaccumulation and biotransformation described in the previous sections, an experiment was performed to estimate experimentally the free bioavailable concentration (Cfree,exp) in the test medium. For this purpose, an experiment was designed to simulate the test conditions, and Cfree was determined using solid-phase microextraction (SPME), following the fiber method developed by Henneberger et al..
PDMS-coated glass microfibers (30 µm thick, 13.19 µL/m coating volume) were cut into 1.5 cm pieces and cleaned in methanol for more than 24 h prior to the experiment, with the solvent replaced at least three times. The cleaned and dried fiber was placed in a glass vial with 1 mL of sample exposure medium containing 1.8 and 2.6 mg·L^−1 BDE-47. Three replicates were prepared for each condition. A portion of the initial sample was stored at −20 °C until analysis. The vials were then sealed and incubated with rotation at 28 °C for 72 h until equilibrium of BDE-47 distribution among the fiber, medium, and binding to the predominant serum protein of the culture (Bovine serum albumin, BSA) was reached. Once at equilibrium, the fibers were extracted from the vials and desorbed with 400 µL isooctane for 24 h with rotation. Finally, the extract was analyzed by GC-MS-µECD, as described in Section 2.5. The concentration of BDE-47 in the initial sample (Cmed,0h) and in the resulting media after equilibration (Cmed,eq) was determined according to the procedure described in Section 2.5, to confirm the actual mass balance.
Since this study evaluates and discusses the behavior of BDE-47 in comparison to observations from a previous study with phenanthrene, as explained in the introduction section, the experimental Cfree of phenanthrene was also determined, as it had not been measured previously. In this case, the difference in the process was that PA fibers (36 µm thick, 16.71 µL/m coating volume) were used. Samples of 10 and 20 mg·L^−1 PHE were prepared, and the fibers and samples were incubated for 24–48 h until equilibrium was reached, and desorbed with hexane for 3 h.
To determine the free concentration, concentration in the SPME fiber (Cfiber) was first estimated using Equation (1) from the concentration measured in the desorption extract (Cdes), the desorption volume (Vdes) and the coating volume of the fiber (Vfiber). This volume was estimated according to the coating volume and the length of the fiber.(1) Cfiber=Cdes·Vdes/Vfiber
Next, Cfree,exp was determined at the time before the SPME fiber was added to the system, according to Equation (2). For this, the concentration measured in the fiber equilibrated with the medium (PDMS-BDE-47-BSA or PA-PHE-BSA), the concentration measured in the initial sample (Cmed,0h), and the partition constant of the equilibrium formed between the fiber and the medium (log DPDMS/medium; BDE-47 = 5.84 [25]; log DPA/medium; PHE = 6.69 [26]) were used.(2) Cfree=Cmed,0h·Vsample/Dfiber/medium·Cmed,0h·Vsample/Cfiber−Vfiber

For `Brc1ccc(Oc2ccc(Br)cc2Br)c(Br)c1` [BDE-47, 2,2′,4,4′-tetrabromodiphenyl ether], the volatilization loss [1] is listed as 14%, the BCFk ([2]; 0.31 ng·L^−1) is listed as 26,000 L·kg^−1 and the BCFk ([2]; 8 µg·L^−1) is listed as 10,900 L·kg^−1. For the same compound, the “Recovery of losses from volatilization (% Rec. Vol.)” value (“Recovery of losses … (% Rec. Vol.)” below) ([3]; 24h, 1.8 mg·L-1, no cells vs time 0h) was 76%, the “Recovery of losses … (% Rec. Vol.)” value ([3]; 24h, 2.6 mg·L-1, no cells vs time 0h) was 73% and the “Recovery of losses … (% Rec. Vol.)” value ([3]; 48h, 1.8 mg·L-1, no cells vs time 0h) was 69%. The “Recovery of losses … (% Rec. Vol.)” value ([3]; 48h, 2.6 mg·L-1, no cells vs time 0h) was 63%, the “Recovery of losses … (% Rec. Vol.)” value ([3]; 72h, 1.8 mg·L-1, no cells vs time 0h) was 68% and the “Recovery of losses … (% Rec. Vol.)” value ([3]; 72h, 2.6 mg·L-1, no cells vs time 0h) was 52%. The “decrease in Cmedium,no cells with respect to nominal concentration” value ([3]; Cnominal 1.8 mg·L^−1, cell-free sample) was 29%, the “decrease in Cmedium,no cells with respect to nominal concentration” value ([3]; Cnominal 2.6 mg·L^−1, cell-free sample) was 37% and the CLH (zebrafish; 1.8 mg·L-1, ZF) was 2.01 mL/h/kg. The “CLIN VITRO, INT” value (zebrafish; 1.8 mg·L-1, ZF) was 0.0220 mL/h/106 cells, the kMET (zebrafish; 1.8 mg·L-1, ZF) was 0.0022 day⁻¹ and the CLH (zebrafish; 2.6 mg·L-1, ZF) was 0.333 mL/h/kg. The “CLIN VITRO, INT” value (zebrafish; 2.6 mg·L-1, ZF) was 0.0037 mL/h/106 cells, the kMET (zebrafish; 2.6 mg·L-1, ZF) was 0.0004 day⁻¹ and the “BCFIVIVE, ZF” value (zebrafish; Cnominal 1.8 mg·L^−1) was 13,885 L·kg^−1. For the same compound, the “BCFIVIVE, ZF” value (zebrafish; Cnominal 2.6 mg·L^−1) was 14,926 L·kg^−1, the “% Cfree, exp” value ([4]; Cnom 1.8 mg·L^−1, % of total concentration) was 0.06% and 0.06 ± 0.03% and the “Cfree, exp” value ([4]; Cnom 1.8 mg·L^−1, PDMS fiber) was “(0.4 ± 0.2) µg·L^−1”. For the same compound, the “% Cfree, exp” value ([4]; Cnom 2.6 mg·L^−1, % of total concentration) was 0.08% and 0.079 ± 0.003% and the “Cfree, exp” value ([4]; Cnom 2.6 mg·L^−1, PDMS fiber) was “(1.14 ± 0.04) µg·L^−1”.
